According to patent publication US20230312685A1, “Bi-Peptide with Affinity to Extracellular Matrix Proteins or Cells and to Growth Factors for Tissue Healing and Regeneration” (Mayo Foundation for Medical Education and Research, priority 2019, published 2023):

Molecular target: T1, collagen type 1 of the scaffold (CMI) (Bos taurus, UniProt P02453+P02465)
T1 construct: the CMI is build out of collagen type 1 from bovine origin (FDA approved implant); from tissue; host or cells: bovine-derived collagen, in the form of the commercial collagen meniscal implant (CMI) scaffold
Test: Immunofluorescence (IF) assay for PDGF-BB on the collagen meniscal implant (CMI)
Type: binding, bovine
Description: Pictures are merged z-stack files from confocal microscopy.
(1) Complete assay; (2) Blank assay; (3) Assay without peptide; (4) Assay without growth factor (PDGF); (5) Assay without primary antibody. Note: PDGF appears to bind well to collagen type 1 of the scaffold even without pre-incubation of the bi-peptide structure. Therefore the heparin-binding domain part of the peptide for PDGF can't be evaluated according to this assay.
FIG. 10 is an image of a Tile confocal scan of the CMI in the IF assay for PDGF-BB. The complete surface of the CMI was able to bind with recombinant PDGF.

T1 sequence (P02453 162-1217 limits assumed): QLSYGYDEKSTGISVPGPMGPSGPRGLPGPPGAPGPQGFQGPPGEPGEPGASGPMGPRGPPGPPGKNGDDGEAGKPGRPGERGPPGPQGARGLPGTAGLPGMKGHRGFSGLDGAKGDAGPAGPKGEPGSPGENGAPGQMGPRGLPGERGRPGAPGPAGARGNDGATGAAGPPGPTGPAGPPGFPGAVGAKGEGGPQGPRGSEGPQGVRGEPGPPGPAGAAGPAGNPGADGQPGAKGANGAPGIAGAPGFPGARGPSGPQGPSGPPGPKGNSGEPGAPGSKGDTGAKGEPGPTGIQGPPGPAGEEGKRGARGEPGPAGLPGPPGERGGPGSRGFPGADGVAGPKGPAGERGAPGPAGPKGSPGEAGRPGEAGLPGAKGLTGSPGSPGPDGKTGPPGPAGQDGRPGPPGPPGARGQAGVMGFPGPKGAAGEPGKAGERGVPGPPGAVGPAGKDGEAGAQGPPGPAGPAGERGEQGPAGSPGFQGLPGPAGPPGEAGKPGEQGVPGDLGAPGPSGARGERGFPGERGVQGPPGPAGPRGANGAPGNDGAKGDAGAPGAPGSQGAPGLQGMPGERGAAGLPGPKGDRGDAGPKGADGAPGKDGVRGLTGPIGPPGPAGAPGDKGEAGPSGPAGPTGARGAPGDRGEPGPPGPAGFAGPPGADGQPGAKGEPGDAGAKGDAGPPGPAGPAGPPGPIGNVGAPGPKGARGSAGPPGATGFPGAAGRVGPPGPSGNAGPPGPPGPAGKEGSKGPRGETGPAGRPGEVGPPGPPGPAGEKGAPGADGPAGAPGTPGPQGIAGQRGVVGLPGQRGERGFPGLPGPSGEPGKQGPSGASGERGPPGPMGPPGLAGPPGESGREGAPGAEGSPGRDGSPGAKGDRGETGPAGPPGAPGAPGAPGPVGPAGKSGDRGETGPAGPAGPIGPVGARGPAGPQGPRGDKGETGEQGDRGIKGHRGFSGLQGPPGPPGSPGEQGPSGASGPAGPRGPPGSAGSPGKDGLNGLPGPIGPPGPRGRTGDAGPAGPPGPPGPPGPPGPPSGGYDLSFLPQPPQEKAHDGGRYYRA
T1 sequence (P02465 80-1117 limits assumed): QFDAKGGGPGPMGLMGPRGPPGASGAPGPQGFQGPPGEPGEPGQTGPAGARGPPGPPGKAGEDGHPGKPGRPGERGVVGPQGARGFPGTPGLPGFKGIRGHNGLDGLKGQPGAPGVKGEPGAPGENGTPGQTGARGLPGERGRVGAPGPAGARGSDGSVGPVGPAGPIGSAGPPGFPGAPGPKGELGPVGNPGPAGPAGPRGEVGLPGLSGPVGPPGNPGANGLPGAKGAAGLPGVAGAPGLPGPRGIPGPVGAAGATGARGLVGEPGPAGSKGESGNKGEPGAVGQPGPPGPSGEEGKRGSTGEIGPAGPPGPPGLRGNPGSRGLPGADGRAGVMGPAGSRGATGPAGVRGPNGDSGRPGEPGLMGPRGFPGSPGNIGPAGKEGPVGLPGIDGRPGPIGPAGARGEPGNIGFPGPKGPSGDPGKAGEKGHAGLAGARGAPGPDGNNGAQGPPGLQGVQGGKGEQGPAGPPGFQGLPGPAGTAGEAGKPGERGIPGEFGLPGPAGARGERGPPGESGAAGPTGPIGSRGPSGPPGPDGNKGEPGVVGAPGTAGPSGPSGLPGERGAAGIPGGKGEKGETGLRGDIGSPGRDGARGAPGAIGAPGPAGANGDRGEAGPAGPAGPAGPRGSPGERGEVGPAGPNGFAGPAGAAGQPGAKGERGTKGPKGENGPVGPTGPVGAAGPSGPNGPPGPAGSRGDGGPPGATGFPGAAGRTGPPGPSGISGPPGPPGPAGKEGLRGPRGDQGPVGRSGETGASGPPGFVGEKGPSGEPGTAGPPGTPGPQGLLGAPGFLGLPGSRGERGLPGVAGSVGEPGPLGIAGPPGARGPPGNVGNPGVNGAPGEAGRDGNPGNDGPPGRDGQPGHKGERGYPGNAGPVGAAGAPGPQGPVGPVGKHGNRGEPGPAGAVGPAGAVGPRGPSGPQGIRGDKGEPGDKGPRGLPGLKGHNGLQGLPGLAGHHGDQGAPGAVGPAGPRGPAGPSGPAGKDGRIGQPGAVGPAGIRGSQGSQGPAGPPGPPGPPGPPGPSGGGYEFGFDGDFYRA

binding of PDGF to collagen type 1 of the scaffold (IF assay on CMI, without pre-incubation of the bi-peptide structure): bind well
binding of recombinant PDGF to the CMI surface (tile confocal scan of the CMI, complete surface): able to bind
Substance: PDGF
